# Reference: patent US6342500B1, “Post-Amadori inhibitors of Advanced Glycation reactions” (Kansas University Medical Center, priority 1999, dated 2002)
# Read-outs that look alike come from different tables or passages of the source.
# How the values were obtained:
# [1] = system: normal human epidermal keratinocytes; assay: Neutral red uptake bioassay using normal human epidermal keratinocytes; format: cell-based; conditions: for HuLC50: preliminarily estimated concentration for half-maximal toxicity, neutral red uptake, normal human epidermal keratinocytes
# Experimental: A neutral red uptake bioassay using normal human epidermal keratinocytes was then conducted to preliminarily estimate the toxicity (HuLC50) of dipyridoxylamine relative to pyridoxamine. The bioassay was conducted according to standard protocols. (Borenfreund et al., J. Tissue Culture Methods 9:7-9, 1984; Heimann, et al., Cancer Res. 43:4856-4862, 1983; Shopsis et al., in “Alternative Methods in Toxicology,” Vol. 6, AM Goldberg (Ed), Mary Ann Liebert, Inc., N.Y., p. 253-263, 1988) The preliminarily estimated concentration for half-maximal toxicity was then divided by the half maximal inhibition of post-Amadori AGE formation to derive a therapeutic index ratio.
# [2] = system: conversion of Amadori compounds to post Amadori advanced glycation endproducts (bovine serum albumin glycated by ribose); assay: Interrupted glycation: post-Amadori AGE formation of bovine serum albumin by ribose; format: biochemical
# Experimental: FIG. 2 is graph depicting the effect of dipyridoxylamine (BST-4500) on post-Amadori AGE formation during interrupted glycation of bovine serum albumin by ribose. Modification with ribose was done at 37° C. in 0.2 M phosphate buffer of pH 7.5 containing 0.02% sodium azide. The solutions were kept in capped tubes and opened only to remove timed aliquots that were immediately frozen for later carrying out the various analyses. “Interrupted glycation” experiments were carried out by first incubating protein with the ribose at 37° C. for 8 or 24 h, followed by immediate and extensive dialysis against frequent cold buffer changes at 4° C. The samples were then reincubated by quickly warming to 37° C. in the absence of external ribose. Aliquots were taken and frozen at various intervals for later analysis.
# The interrupted glycation method for following post-Amadori kinetics of AGE formation allows for the rapid quantitative study of “late” stages of the glycation reaction. Importantly, this method allows for inhibition studies that are free of pathways of AGE formation which arise from glycoxidative products of free sugar or Schiff base (Namiki pathway).
# In comparison, in a similar experiment, pyridoxamine inhibited the conversion of Amadori compounds to post Amadori advanced glycation endproducts with a half-maximal inhibitory concentration of approximately 3 mM. Thus, the post-Amadori-inhibitory activity of dipyridoxylaminc is approximately 750-fold greater than that of pyridoxamine.
# [3] = half maximal inhibition of post-Amadori AGE formation, read-out: IC50
Structure (SMILES),"toxicity relative to pyridoxamine ([1]; neutral red uptake bioassay, in words)",HuLC50 [1] [mM],"IC50 [2, 3] [µM]","IC50 ([2]; interrupted glycation of BSA by ribose, 37° C., 0.2 M phosphate buffer pH 7.5, read-out: half-maximal inhibitory concentration for inhibiting the conversion of Amadori compounds to post Amadori advanced glycation endproducts) [µM]","post-Amadori-inhibitory activity relative to pyridoxamine ([2]; ratio of half-maximal inhibitory concentrations, versus pyridoxamine)","IC50 ([2]; in a similar experiment (interrupted glycation), read-out: half-maximal inhibitory concentration for inhibiting the conversion of Amadori compounds to post Amadori advanced glycation endproducts) [µM]"
Cc1ncc(CO)c(CNCc2c(CO)cnc(C)c2O)c1O [Dipyridoxylamine],mildly more toxic than pyridoxamine,1.8,4,~4,approximately 750 fold,
"Cc1ncc(CO)c(CN)c1O [Pyridoxamine, pyridoxamine, reference compound]",,16.7,3000,,,~3000
